Experimental data reported in patent publication US20210155905A1, “Method for Obtaining Haploid Cells” (Centre National de la Recherche Scientifique (CNRS), priority 2017, published 2021).
“Also recorded” adds a separate entry of the source.

Key:
3T3 cells [1] = test: FACS DNA content: appearance of the 1C (sub-G1) cell population 20 hours after release from G0; assay type: cell-based, mouse; details: ΔDboxGeminin-expressing cells, 9 μM RO-3306 upon G0/G1 release
Protocol: (§1) FIG. 31 represents FACS profiles showing the DNA content (propidium iodide staining) of 3T3 cells 20 hours after release from G0 in the presence (+ΔDboxGem) or not (−ΔDboxGem) of doxycycline alone (CTRL—first column) or combined with RO-3306 treatment (a CDK1 inhibitor that prevents mitotic entry second column) or after UV treatment (performed upon release to induce DNA damage; third column).
For PI, BrdU/PI and ^ser10PH3/PI experiments, cells were fixed in cold 70% Ethanol/PBS and then processed for indirect immunofluorescence, as described above. To detect cyclin B1/PI, MPM2/PI and FLAG/PI, cells were fixed in 3% PFA in PBS at RT for 15 min, permeabilized in 0.5% Triton X-100 for 5 min and processed for indirect immunofluorescence. For DNA staining, cells were treated with 50 μg·mL^−1 RNase A (Sigma, R6513) and stained with 25 μg·mL^−1 propidium iodide.
(§2) To express CDT1, 3T3 cells were transfected with 5 μg of plasmid pCDNA3-CDT1 or empty vector using Nucleofector TN II; Amaxa Biosystem; AAD-1001N. To induce DNA damage, synchronized cells were exposed to UV (0.002 joules) using the Bioblock Scientific BLX-254 upon release or incubated with 2 mM hydroxyurea for 20 hours. To block mitotic progression, 9 μM RO-3306 was added in the medium upon G0/G1 release.

3T3 cells [2] = test: Western blotting of cleaved caspase 3 (apoptosis); assay type: cell-based, mouse; details: synchronized cells, hydroxyurea for 20 hours
Protocol: as §1
FIG. 32 is a control western blot used as control of the experiment of FIG. 31. […] A: next G1, B: HU and C: U.V. C3*: cleaved caspase 3 and H3: histone H3.
as §2
To prepare total cell extracts, cells were harvested, washed twice with PBS, lysed in 2× Laemmli buffer, sonicated (3×30 seconds) and boiled for 5 min. To obtain chromatin-enriched fractions, a protocol adapted from Lutzmann et al. [Lutzmann et al. 2012 Molecular Cell, 47, 523-534] was used. […]

| Structure (SMILES) | appearance of the 1C DNA content cell population (3T3 cells [1]) | apoptosis (cleaved caspase 3) (3T3 cells [2]) |
| --- | --- | --- |
| O=C1NC(=NCc2cccs2)S/C1=C\c1ccc2ncccc2c1 [RO-3306] | prevented mitotic entry and the appearance of the 10 DNA cell population; also recorded: totally prevented their appearance | – |
| NC(=O)NO [hydroxyurea] | – | did not induce detectable apoptosis |
